Measurements reported in US10660789B2, “1,4-dihydropyridine derivatives with HSP modulating activity” (Richter Gedeon NYRT., priority 2011, dated 2020).
Counter-ions that a name gives are not always drawn.

Key:
Hsp27 = experiment: Other in vitro effects, Hsp27 (Table 3); format: cell-based; design: key: +: co-inducing activity; −: silencing activity; 0: with the experimental methods applied no other HSP modulating effects could be identified
Method: (§1) Reporter plasmids, containing the Hsp70 and/or Hsp25 promoter conjugated to either YFP or GFP (yellow or green fluorescent protein), were stably transfected into the cells and the expression of YFP or GFP was followed by flow cytometry. Cells were either kept at 37° C. or exposed to heat shock at 42° C. for 1 hour followed by a 16 hour recovery period at 37° C. in the presence or absence of different concentrations of the test compound. After recovery the expression of YFP or GFP which is in straight correlation with the promoter activity of Hsp70 or Hsp27 genes was followed by measuring the fluorescence intensity of the cells by flow cytometry. Fluorescence intensity is in straight correlation with the amount of fluorescent protein (GFP or YFP) produced under the control of hsp promoter. The mean fluorescence intensity of YFP or GFP produced is shown as “Hsp promoter activity”.

[1] = system: APP mutant transgenic mice; experiment: Hippocampal histology after Morris water maze (cresyl violet, tau immunohistochemistry, Golgi staining); format: in vivo, mouse
Method: After the Morris water maze task the animals were deeply anesthetized, and transcardialy perfused with 10 ml 4° C. phosphate-buffered saline solution (PBS), followed by 30 ml of 4° C. paraformaldehyde solution (4% in phosphate buffer, pH 7.4). The brains were removed and postfixed for 24 h in the same fixative (4° C.) and subsequently cryoprotected in 30% sucrose solution for 72 h (4° C.). Brains were cut on a cryostat in 30 μm hippocampal coronal sections, and the slices were collected and stored at 4° C. in PBS for free floating immunohistochemistry.
Cresyl violet staining (Nissl staining) is used for neuronal tissue; the stain binds to the acidic components of the neuronal cytoplasm, showing the number of functioning neurons. Slides were stained into the filtered 1% crezyl violet solution for 5 min. and were dehydrated in 50% 70%, 95%, 2×100% ethanol for 1 minute each. After that slides were placed in xylene for another 10 minutes, and coversliped.
Neurofibrillary tangles (NTFs) are intraneuronal aggregates; these are abnormal accumulations associated with neurodegenerative diseases. To visualize the presence of these structures, we used for immunostaining human PHF-tau MAb(clone AT100) primer antibody at 1:800 dilution in PBS (pH 7.4).
The methodological steps in all three immunohistological techniques were the same. After quenching of endogenous peroxidase activity and a blocking step, the sections were incubated overnight at 4° C. with the primary antibody in the presence of 20% goat serum and Triton X-100 0.2%. On the following day, the sections were washed in PBS and incubated for 1 h at room temperature with the secondary biotinylated goat anti-mouse antibody (Vector Laboratories, Burlingame, Calif., USA, 1:400). […]
Dendritic spines change their density after a CNS injury, to visualize this effect, we made Golgi staining. […] The slides were analyzed with confocal light microscopy, we counted dendritic spines 100 μm tong on hippocampal pyramidal cells, and start point was 100 μm farther from the stoma. […]

Hsp70 promoter = experiment: Hsp70 promoter-YFP reporter in SHSY5Y cells, flow cytometry; format: cell-based, human
Method: The Hsp co-inducing effect of the compounds on stress response was tested on B16 mouse melanoma and SHSY5Y human neuroblastoma cell lines stably transfected with Hsp promoter probing plasmids. This kind of promoter probing, using the promoter region of a given gene conjugated with fluorescent protein is used as a best and fastest test system for finding drugs which modulate the activity of the gene followed by the given promoter (Wyshocka et al., Mol. Cel. Biochem. 215:153-156, 2000).
as §1
The fluorescence intensity of YFP produced as a result of Hsp70 promoter activity was measured by flow cytometry.
Cells were homogenously distributed on 6-well plates in 1×10^5 cells/well density. B16-pHsp25-GFP and B16-pHsp70-YFP melanoma cells were grown in RPMI-1640 medium supplemented with 10% Fetal bovine serum (FBS), penicillin (200 units/ml), streptomycin (200 μg/ml) and 2 mM L-Glutamine. […] The changes in cells' fluorescence were detected using BD FACSCalibur flow cytometer.

COC(=O)C1=C(CCN(C)C)N(C)C(CCN(C)C)=C(C(=O)OC)C1c1ccc(C(F)(F)F)cc1 [Example 23, Dimethyl 4-(4-trifuoromethylphenyl)-2,6-bis-(2-dimethylaminoethyl)-1-methyl-1,4-dihydropyridine-3,5-dicarboxylate dihydrochloride]
Other in vitro effects: Hsp27 (Hsp27): Hsp27 0
Golgi staining, dendritic spine density ([1]; hippocampal pyramidal cells): the spine density was the highest in the APP mutant compound of Ex. 23 treated group
tau-immunohistochemistry ([1]; hippocampus, APP mutant mice): could inhibit the taupathology
cresyl-violet staining, alive neurons ([1]; hippocampus, versus negative control group): more alive neurons
induction of Hsp70 gene activity (Hsp70 promoter; 20 μM, SHSY5Y cells at 42° C., FIG. 1): approximately 20 times
activity of the promoter of the hsp70 gene at 37° C. (Hsp70 promoter; SHSY5Y cells, 37° C., no heat stress): does not affect the activity of the promoter of the hsp70 gene at 37 °C
increase in HSP70 expression (Hsp70 promoter; SHSY5Y cells, relative to cells treated at 42° C. without the compound, FIG. 2): 23 fold
